T1: CXCR2 (Homo sapiens, UniProt P25025)
T1 construct: expressed in transfected cells
T1 sequence (P25025 1-360): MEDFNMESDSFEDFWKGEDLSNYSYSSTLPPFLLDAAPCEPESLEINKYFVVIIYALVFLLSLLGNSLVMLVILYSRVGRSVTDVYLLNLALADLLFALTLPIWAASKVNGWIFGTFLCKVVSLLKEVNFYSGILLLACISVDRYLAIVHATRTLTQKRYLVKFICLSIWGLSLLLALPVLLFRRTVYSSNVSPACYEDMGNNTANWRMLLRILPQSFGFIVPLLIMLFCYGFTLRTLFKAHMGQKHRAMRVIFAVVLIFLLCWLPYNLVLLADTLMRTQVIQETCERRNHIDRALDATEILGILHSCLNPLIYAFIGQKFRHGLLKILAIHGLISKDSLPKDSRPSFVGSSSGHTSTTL


Experiments:
CXCR2 [1] = biological target: T1, CXCR2; assay: Bias analysis (bias plot, bias index) of β-arrestin1 recruitment inhibition versus Gαi1 activation inhibition, navarixin as reference; type: cell-based; settings: all ELR+ chemokines; navarixin as reference antagonist
Procedure: For signaling bias calculations, constraints were set to bottom values equal to zero. The calculated top values generated by nonlinear fit log (inhibitor) vs response (three parameters) in GraphPad 10.2.1 were taken as Imax. […] The bias index values were calculated, as is shown in calculation 2. Briefly, log(Imax/IC50) was calculated. […] Finally, the bias index was calculated by subtracting the ∆log (Imax/IC50) of the tested compound from the stated reference pathway from that of the pathway of interest. […] The statistical significance of H1 was evaluated using a one-sample T-test with Benjamini-Hochberg correction applied for multiple comparisons, whereas H2 was assessed using a one-way ANOVA followed by Tukey’s test.
Bias index=∆LogImax/IC50P1:β−arr1−∆LogImax/IC50P2:Gai1 .
Bias plots are equimolar comparisons between the two pathways of interest.

CXCR2 [2] = biological target: T1, CXCR2; assay: NanoBRET β-arrestin1 recruitment inhibition assay (NanoLux) in HEK293A cells; type: cell-based; settings: normalized to Imax of navarixin = 100%, n = 3
Procedure: Cells were trypsinized and resuspended at 3 × 10^5 cell/mL in the growth medium, whereafter they were incubated for 2 hours at RT. Cells were transfected in suspension using FuGENE® HD Transfection Reagent at a 3:1 reagent to DNA ratio in Opti-MEMTM I Reduced-Serum Medium, with the final DNA concentration of 1 μg/μL. The transfection mixture was incubated for 10 min at RT before adding it to the cell suspension. Transfected cells were seeded at 3.0 × 10^4 cells/well in a white, clear, flat-bottom 96-well plate coated with 100 μg/mL poly-D-lysin ([…], Sigma Aldrich) and incubated for 48 h at 37°C and 5% CO2. HEK293A cells were transiently co-transfected with plasmids encoding β-arrestin1 protein tagged with NLuc (donor) and CXCR2 protein tagged with mNeonGreen (mNG) acceptor in a 1:10 donor to acceptor ratio, as described previously ([Luís et al., 2022]). All subsequent steps are identical to those in “NanoBRET-based G protein activation inhibition assay,” which are described above. Measurements were acquired using a 440- to 480-nm donor emission filter (#0200-6179, Molecular Devices) and a 515- to 575-nm acceptor emission filter (#0200-6203, Molecular Devices) BRET ratios were extracted from ScreenWorks software (Molecular Devices) and represent the ratio between the acceptor emission of […]2 or mNG (G protein or β-arrestin recruitment, respectively) and NLuc donor emission. The basal BRET ratio was defined as the average BRET ratio of the five consecutive readings preceding ligand addition. Changes in BRET values post ligand administration (ΔBRET) were calculated for each well as a percentage difference to the previously defined basal BRET ratio. Average ΔBRET values were baseline corrected by subtracting the average negative control BRET ratio (unstimulated condition). […] AUCs were normalized to the positive control (stimulated condition); whereafter, dose-response curves were fitted to log (inhibitor) vs response (three parameters) in GraphPad 10.2.0 (GraphPad Software). […] Calculation 1: calculation of the BRET signal. • 1. […] NC correctedΔBRET=Δ[…]. • 4. a. Neg AUC of NC correctedΔBRET=Gα activation read out. b. Pos AUC of NC correctedΔBRET=β-arrestin recruitment.

CXCR2 [3] = biological target: T1, CXCR2; assay: NanoBRET-based G protein activation inhibition assay (REGA-SIGN Gαi1 dissociation) in HEK293A.CXCR2 cells; type: cell-based; settings: normalized to Imax of navarixin = 100%, n = 3
Procedure: Cells were trypsinized and resuspended at 3 × 10^5 cell/mL in the growth medium, whereafter they were incubated for 2 hours at RT. Cells were transfected in suspension using FuGENE® HD Transfection Reagent at a 3:1 reagent to DNA ratio in Opti-MEMTM I Reduced-Serum Medium, with the final DNA concentration of 1 μg/μL. The transfection mixture was incubated for 10 min at RT before adding it to the cell suspension. Transfected cells were seeded at 3.0 × 10^4 cells/well in a white, clear, flat-bottom 96-well plate coated with 100 μg/mL poly-D-lysin ([…], Sigma Aldrich) and incubated for 48 h at 37°C and 5% CO2. […] (2023)]. Following the 48-h incubation period, cells were washed with the assay buffer. Compounds were serially diluted in 1:500 Nano-Glo® Vivazine^TM working solution (#N2581, Promega), and 90 μL of compound/Vivazine mix was added, followed by incubation for 45 min at 37°C and 5% CO2. Plates were transferred to the FLIPR Penta system (Molecular Devices) at 37°C, and all steps onward are automated and performed by the FLIPR Penta system. After a 10-min equilibration period, the baseline BRET signal was determined by five consecutive reads followed by automatic administration of 10 μL of 10× ligand (Table 1) to the cell plate. Changes in the BRET signal was measured for 10 min, with each read spaced by 2.5 s. […] BRET ratios were extracted from ScreenWorks software (Molecular Devices) and represent the ratio between the acceptor emission of […]2 or mNG (G protein or β-arrestin recruitment, respectively) and NLuc donor emission. The basal BRET ratio was defined as the average BRET ratio of the five consecutive readings preceding ligand addition. Changes in BRET values post ligand administration (ΔBRET) were calculated for each well as a percentage difference to the previously defined basal BRET ratio. Average ΔBRET values were baseline corrected by subtracting the average negative control BRET ratio (unstimulated condition). […] AUCs were normalized to the positive control (stimulated condition); whereafter, dose-response curves were fitted to log (inhibitor) vs response (three parameters) in GraphPad 10.2.0 (GraphPad Software). […] Calculation 1: calculation of the BRET signal. • 1. […] NC correctedΔBRET=Δ[…]. • 4. a. Neg AUC of NC correctedΔBRET=Gα activation read out. b. Pos AUC of NC correctedΔBRET=β-arrestin recruitment.

CXCR2 [4] = biological target: T1, CXCR2; design: method as in Boon et al., 2024; settings: agonist concentration used in NanoBRET assays; ref Boon et al., 2024; cited from earlier work
CXCR2 [5] = biological target: T1, CXCR2; design: method as in Boon et al., 2024; settings: agonist concentration used in NanoBRET assays; ref Boon et al., 2024; cited from earlier work; remark: listed apart in the source

Imax βarr1 (maximum observed inhibitory effect) (CXCR2 [2]; CXCL1 at EC80) | Imax βarr1 (maximum observed inhibitory effect) (CXCR2 [2]; CXCL2 at EC80) | Imax βarr1 (maximum observed inhibitory effect) (CXCR2 [2]; CXCL3 at EC80) | Imax βarr1 (maximum observed inhibitory effect) (CXCR2 [2]; CXCL5 at EC80) | Imax βarr1 (maximum observed inhibitory effect) (CXCR2 [2]; CXCL6 at EC80) | Imax βarr1 (maximum observed inhibitory effect) (CXCR2 [2]; CXCL7 at EC80) | Imax βarr1 (maximum observed inhibitory effect) (CXCR2 [2]; CXCL8 at EC80) | Imax Gαi1 (maximum observed inhibitory effect) (CXCR2 [3]; CXCL1 at EC80) | Imax Gαi1 (maximum observed inhibitory effect) (CXCR2 [3]; CXCL2 at EC80) | Imax Gαi1 (maximum observed inhibitory effect) (CXCR2 [3]; CXCL3 at EC80) | Imax Gαi1 (maximum observed inhibitory effect) (CXCR2 [3]; CXCL5 at EC80) | Imax Gαi1 (maximum observed inhibitory effect) (CXCR2 [3]; CXCL6 at EC80) | Imax Gαi1 (maximum observed inhibitory effect) (CXCR2 [3]; CXCL7 at EC80) | Imax Gαi1 (maximum observed inhibitory effect) (CXCR2 [3]; CXCL8 at EC80) | Molecule | bias profile (bias plot), β-arrestin1 recruitment inhibition vs Gαi1 activation inhibition (CXCR2 [1]) | β-arrestin EC80 (CXCR2 [4]) | G-protein EC80 (CXCR2 [5])
100% | 100% | 100% | 100% | 100% | 100% | 100% | 100% | 100% | 98.8% | 95.7% | 100% | 100% | 98.5% | C[C@H](CO)Nc1nc(SCc2cccc(Cl)c2F)nc2[nH]c(=O)sc12 [AZ10397767, reference compound] | bias toward the inhibition of β-arrestin1 recruitment |  | 
 |  |  |  |  |  |  |  |  |  |  |  |  |  | CXCL7: recombinant human ELR+ chemokine, CXCR2 ligand (PeproTech) (protein, UniProt P02775 59-128, looked up, Neutrophil-activating peptide 2) Neutrophil-activating peptide …: AELRCMCIKTTSGIHPKNIQSLEVIGKGTHCNQVEVIATLKDGRKICLDPDAPRIKKIVQKKLAGDESAD |  | 100.70 nM | 4.09 nM
